Laboratory results: the supplement of paper PMC13380429

Columns and labels:
Conditions in all cases: 72 h
Caco-2 [1] = experiment: cell viability relative to DMSO; higher = less toxic
Calu-3 [2] = experiment: as above
HepG2 [3] = experiment: as above
U2OS [4] = experiment: as above
Vero E6 [5] = experiment: as above
Caco-2 [6] = experiment: relative viability EC50 (midpoint between 100% and the lowest measured viability); higher = less toxic
Calu-3 [7] = experiment: as above
HepG2 [8] = experiment: as above
U2OS [9] = experiment: as above
Vero E6 [10] = experiment: as above
Caco-2 [11] = experiment: drug sensitivity score (DSS) for viability; higher = more toxic; extreme values may be limits of the assay
Calu-3 [12] = experiment: as above
HepG2 [13] = experiment: as above
U2OS [14] = experiment: as above
Vero E6 [15] = experiment: as above

SMILES | cell viability (Caco-2 [1]; 1 nM) [%] | cell viability (Caco-2 [1]; 10 nM) [%] | cell viability (Caco-2 [1]; 100 nM) [%] | cell viability (Caco-2 [1]; 1000 nM) [%] | cell viability (Caco-2 [1]; 10000 nM) [%] | cell viability (Calu-3 [2]; 1 nM) [%] | cell viability (Calu-3 [2]; 10 nM) [%] | cell viability (Calu-3 [2]; 100 nM) [%] | cell viability (Calu-3 [2]; 1000 nM) [%] | cell viability (Calu-3 [2]; 10000 nM) [%] | cell viability (HepG2 [3]; 1 nM) [%] | cell viability (HepG2 [3]; 10 nM) [%] | cell viability (HepG2 [3]; 100 nM) [%] | cell viability (HepG2 [3]; 1000 nM) [%] | cell viability (HepG2 [3]; 10000 nM) [%] | cell viability (U2OS [4]; 1 nM) [%] | cell viability (U2OS [4]; 10 nM) [%] | cell viability (U2OS [4]; 100 nM) [%] | cell viability (U2OS [4]; 1000 nM) [%] | cell viability (U2OS [4]; 10000 nM) [%] | cell viability (Vero E6 [5]; 1 nM) [%] | cell viability (Vero E6 [5]; 10 nM) [%] | cell viability (Vero E6 [5]; 100 nM) [%] | cell viability (Vero E6 [5]; 1000 nM) [%] | cell viability (Vero E6 [5]; 10000 nM) [%] | relative viability EC50 (Caco-2 [6]) [µM] | relative viability EC50 (Calu-3 [7]) [µM] | relative viability EC50 (HepG2 [8]) [µM] | relative viability EC50 (U2OS [9]) [µM] | relative viability EC50 (Vero E6 [10]) [µM] | drug sensitivity score (Caco-2 [11]) | drug sensitivity score (Calu-3 [12]) | drug sensitivity score (HepG2 [13]) | drug sensitivity score (U2OS [14]) | drug sensitivity score (Vero E6 [15])
N#CN1CCCC1 [pyrrolidine-1-carbonitrile] | 103 | 94.7 | 95.4 | 95.9 | 110 | 97.6 | 104 | 108 | 107 | 97.9 | 90.6 | 91.1 | 94.4 | 95.2 | 101 | 90.3 | 98 | 97.9 | 104 | 107 | 99.6 | 99.2 | 98.2 | 95.3 | 105 | > 10 | > 10 | > 10 | > 10 | > 10 | 0 | 0 | 0 | 0 | 0
Cc1cccc(-c2n[nH]cc2-c2ccc3ncccc3n2)n1 [repsox] | 94 | 98.2 | 95 | 105 | 95 | 95.1 | 94.4 | 98.6 | 101 | 78.4 | 100 | 104 | 98.8 | 95.9 | 91 | 96 | 101 | 92.4 | 93.4 | 94.8 | 102 | 97.8 | 103 | 89.5 | 84.8 | > 10 | > 10 | > 10 | > 10 | > 10 | 0 | 0.7 | 0 | 0 | 1
CCOC(=O)C1=CCCC[C@H]1S(=O)(=O)Nc1ccc(F)cc1Cl [resatorvid] | 98.4 | 98.9 | 93.6 | 99 | 96.1 | 94.8 | 104 | 92.9 | 111 | 96.2 | 104 | 95.6 | 109 | 110 | 98.6 | 100 | 97.7 | 96.9 | 99.6 | 94.7 | 95.2 | 103 | 97.6 | 88.4 | 98.4 | > 10 | > 10 | > 10 | > 10 | > 10 | 0 | 0 | 0 | 0 | 0
CCOCc1nc2c(N)nc3ccccc3c2n1CC(C)(C)O [resiquimod] | 97.7 | 96.7 | 97.3 | 90.4 | 91.3 | 102 | 101 | 94.7 | 101 | 92 | 103 | 104 | 103 | 101 | 94.5 | 99.7 | 103 | 101 | 100 | 97.8 | 108 | 101 | 100 | 99.9 | 102 | > 10 | > 10 | > 10 | > 10 | > 10 | 0 | 0 | 0 | 0 | 0
Cc1cc2nc3c(=O)[nH]c(=O)nc-3n(C[C@H](O)[C@H](O)[C@H](O)COP(=O)(O)O)c2cc1C [riboflavin-5-phosphate-sodium] | 97.8 | 104 | 103 | 100 | 90.3 | 91.4 | 102 | 92.7 | 104 | 99.8 | 97.8 | 104 | 101 | 98 | 108 | 102 | 97.9 | 94.4 | 98.2 | 91.9 | 101 | 102 | 97.2 | 95.7 | 97.2 | > 10 | > 10 | > 10 | > 10 | > 10 | 0 | 0 | 0 | 0 | 0
CS(=O)(=O)c1ccc(C2=C(c3ccccc3)C(=O)OC2)cc1 [rofecoxib] | 96.4 | 93.8 | 100 | 91.1 | 92.7 | 99.1 | 100 | 98 | 101 | 102 | 95.7 | 104 | 95.2 | 103 | 101 | 101 | 98.9 | 100 | 98.8 | 99.5 | 93.6 | 105 | 88.4 | 95.3 | 102 | > 10 | > 10 | > 10 | > 10 | > 10 | 0 | 0 | 0 | 0 | 0
O=C1CCC2CCC(=O)N12 [rolziracetam] | 79.1 | 112 | 82.8 | 98.6 | 89.1 | 91 | 87 | 99.1 | 103 | 96.3 | 114 | 104 | 96.1 | 108 | 116 | 98 | 100 | 101 | 96.7 | 102 | 94.9 | 105 | 97.8 | 102 | 97.5 | > 10 | > 10 | > 10 | > 10 | > 10 | 0 | 0 | 0 | 0 | 0
C1CCN2C[C@@H]3C[C@@H](CN4CCCC[C@@H]34)[C@H]2C1 [sparteine-sulfate] | 84.7 | 87.4 | 81.4 | 78.5 | 105 | 114 | 104 | 108 | 116 | 86.7 | 94.9 | 101 | 102 | 89 | 102 | 105 | 99.7 | 104 | 97.6 | 100 | 97.4 | 98.7 | 82.1 | 93.6 | 105 | > 10 | > 10 | > 10 | > 10 | > 10 | 2.6 | 0 | 0 | 0 | 0
O=C(CCBr)N1CC[N+]2(CC1)CC[N+]1(CCN(C(=O)CCBr)CC1)CC2 [spirobromin] | 103 | 87 | 94.2 | 109 | 108 | 110 | 100 | 94.7 | 110 | 100 | 91.7 | 91.5 | 96.6 | 106 | 96.4 | 96.4 | 95.2 | 97.3 | 99.4 | 97.7 | 91.2 | 101 | 96.4 | 91.5 | 106 | > 10 | > 10 | > 10 | > 10 | > 10 | 0 | 0 | 0 | 0 | 0
Cc1cn([C@H]2C=C[C@@H](CO)O2)c(=O)[nH]c1=O [stavudine] | 92.7 | 92.4 | 82.9 | 113 | 88.6 | 94.1 | 102 | 92.9 | 101 | 108 | 88.4 | 91.5 | 93.8 | 98.4 | 95 | 102 | 99.7 | 103 | 96.7 | 106 | 92.7 | 94.5 | 95.9 | 104 | 105 | > 10 | > 10 | > 10 | > 10 | > 10 | 0 | 0 | 0 | 0 | 0
O=C(O)CCC(=O)O [succinic-acid] | 92.2 | 89.7 | 86 | 94.8 | 93.5 | 97.2 | 105 | 98.5 | 101 | 97.5 | 110 | 100 | 110 | 101 | 99.8 | 95.5 | 102 | 97.7 | 102 | 101 | 104 | 96.6 | 95.5 | 98.4 | 104 | > 10 | > 10 | > 10 | > 10 | > 10 | 0 | 0 | 0 | 0 | 0
CN[C@H](C(=O)N[C@H](C(=O)N(C)[C@H](/C=C(\C)C(=O)O)C(C)C)C(C)(C)C)C(C)(C)c1ccccc1 [taltobulin] | 68.3 | 45.6 | 34.3 | 35 | 35.9 | 82.8 | 58.4 | 46.7 | 39.6 | 38.8 | 73.5 | 28.9 | 28.6 | 34.8 | 33.1 | 73.8 | 31.8 | 17.3 | 18.5 | 17.7 | 88.5 | 39.6 | 25.2 | 17.9 | 18.1 | 0.0011 | 0.0037 | 0.0012 | 0.0021 | 0.0044 | 29.8 | 24.3 | 35 | 36.3 | 33.4
N=C1CCCN1Cc1[nH]c(=O)[nH]c(=O)c1Cl [tipiracil] | 96.7 | 93.4 | 93.2 | 98.1 | 98.6 | 94.2 | 102 | 89.4 | 97.4 | 101 | 100 | 89.6 | 96.5 | 101 | 98.7 | 97.4 | 99 | 93.8 | 97.5 | 100 | 97.6 | 95.9 | 94.9 | 92.6 | 104 | > 10 | > 10 | > 10 | > 10 | > 10 | 0 | 0 | 0 | 0 | 0
CCC[C@@]1(CCc2ccccc2)CC(O)=C([C@H](CC)c2cccc(NS(=O)(=O)c3ccc(C(F)(F)F)cn3)c2)C(=O)O1 [tipranavir] | 98.5 | 97.1 | 93.6 | 103 | 93.1 | 107 | 98.1 | 102 | 109 | 118 | 94.8 | 103 | 93.6 | 103 | 93.9 | 100 | 99.4 | 100 | 104 | 101 | 104 | 102 | 100 | 102 | 105 | > 10 | > 10 | > 10 | > 10 | > 10 | 0 | 0 | 0 | 0 | 0
